Laboratory results published in US20240148821A1, “PHARMACEUTICAL USE OF CYCLIC PEPTIDE COMPOUND” (CHUGAI SEIYAKU KABUSHIKI KAISHA, priority 2021, published 2024).
Numbered stars: 1 amine (or outer) side, 2 acyl side, 3 side chain; on linkers, the order of the positions; unused ones are H or OH. Bridge positions count the residues as written; N and C are the ends. Square brackets hold non-standard residues; d marks the D form. Peptide text beside a SMILES is read from it. * marks the point of attachment. hPhe(3-Cl-4-CF3) = N[C@@H](CCc1ccc(C(F)(F)F)c(Cl)c1)C(=O)O; NMePhe(4-CF3) = CN[C@@H](Cc1ccc(C(F)(F)F)cc1)C(=O)O; hPhe(4-CF3) = N[C@@H](CCc1ccc(C(F)(F)F)cc1)C(=O)O; NMePhe(4-Cl) = CN[C@@H](Cc1ccc(Cl)cc1)C(=O)O; NMedβ3hAla = C[C@H](CC(=O)[*:2])N(C)[*:1]; Phe(3-Cl) = N[C@@H](Cc1cccc(Cl)c1)C(=O)O; X119 = CN(C)C(=O)CCCN(CC(=O)[*:2])[*:1]; NMeGly(cPent) = CN[C@H](C(=O)O)C1CCCC1; Pro(4,4-F2) = O=C(O)[C@@H]1CC(F)(F)CN1; NMeGly(cBu) = CN[C@H](C(=O)O)C1CCC1; NMeCha = CN[C@@H](CC1CCCCC1)C(=O)O; Ala(cPr) = N[C@@H](CC1CC1)C(=O)O; Hyp = O=C(O)[C@@H]1C[C@@H](O)CN1; NMeChg = CN[C@H](C(=O)O)C1CCCCC1; NMeI = CC[C@H](C)[C@H](NC)C(=O)O; NMeE = CN[C@@H](CCC(=O)O)C(=O)O; NMeD = CN[C@@H](CC(=O)O)C(=O)O; NMeL = CN[C@@H](CC(C)C)C(=O)O; NMeNva = CCC[C@H](NC)C(=O)O; NMeV = CN[C@H](C(=O)O)C(C)C; d(β3hA) = C[C@@H](N)CC(=O)O; NMeS = CN[C@@H](CO)C(=O)O; Morpholide = C1CN(*)CCO1; NMeA = CN[C@@H](C)C(=O)O; Piperidide = C1CCN(*)CC1; Pyrrolidide = C1CCN(*)C1; Ac5c = NC1(C(=O)O)CCCC1; Aze = O=C(O)[C@@H]1CCN1; Ac4c = NC1(C(=O)O)CCC1; CH2CMe2OH = CC(C)(O)C*; Isopentyl = CC(C)CC*; Sar = CNCC(=O)O

What follows are compounds tested against protein-protein interaction between Kras and SOS1 (biotin-tagged human Kras loaded with GDP, His-tagged human SOS1) (Homo sapiens (Human), UniProt P01116, G12D) (assay: Protein-protein interaction inhibition between Kras and SOS1 (KrasG12D-SOS PPI) using AlphaScreen). Conditions: not given.
Type: biochemical
`CC[C@H](C)[C@@H]1NC(=O)[C@H](CC(C)C)N(C)C(=O)C[C@@H](C(=O)N2CCCCC2)N(C)C(=O)[C@H](C2CCCCC2)N(C)C(=O)C2(CCCC2)NC(=O)CN(CCCC(=O)N(C)C)C(=O)[C@H](CCc2ccc(C(F)(F)F)c(Cl)c2)NC(=O)CN(C)C(=O)[C@H](CC2CCCCC2)N(C)C(=O)CN(C)C(=O)CN(C)C1=O` [Compound 2052, 4-[(11S,17S,26S,29S,33S,36S)-11-[2-[3-chloro-4-(trifluoromethyl)phenyl]ethyl]-36-cyclohexyl-17-(cyclohexylmethyl)-29-isobutyl-15,18,21,24,30,34,37-heptamethyl-26-[(1S)-1-methylpropyl]-7,10,13,16,19,22,25,28,31,35,38-undecaoxo-33-(piperidine-1-carbonyl)-6,9,12,15,18,21,24,27,30,34,37-undecazaspiro[4.33]octatriacontan-9-yl]-N,N-dimethyl-butanamide] ([NMeL]I[Sar][Sar][NMeCha][Sar][hPhe(3-Cl-4-CF3)][X119][Ac5c][NMeChg][NMeD]-Piperidide; lactam N-11) gave an IC50 of 4.9 nM.

Same assay, conditions: AlphaScreen; biotin-tagged human Kras loaded with GDP, His-tagged human SOS1; read-out: KRAS G12D-SOS PPI IC50
Work on `CC[C@H](C)[C@@H]1NC(=O)[C@H](CC(C)C)N(C)C(=O)C[C@@H](C)N(C)C(=O)[C@H](C(C)C)N(C)C(=O)C2(CCCC2)NC(=O)[C@@H]2CCCN2C(=O)[C@H](CCc2ccc(C(F)(F)F)c(Cl)c2)NC(=O)CN(C)C(=O)[C@H](CC2CCCCC2)N(C)C(=O)[C@@H]2CCN2C(=O)[C@H](C)N(C)C1=O` [Compound 1800] (cyclo([Ac5c][NMeV][NMedβ3hAla][NMeL]I[NMeA][Aze][NMeCha][Sar][hPhe(3-Cl-4-CF3)]P)) yielded an IC50 of 11 nM.
Work on `CC[C@H](C)[C@@H]1NC(=O)[C@H](CC(C)C)N(C)C(=O)C[C@@H](C(=O)N2CCOCC2)N(C)C(=O)[C@H](C2CCCC2)N(C)C(=O)C2(CCCC2)NC(=O)[C@H](CCC(=O)N2CCCC2)N(C)C(=O)[C@H](CCc2ccc(C(F)(F)F)c(Cl)c2)NC(=O)CN(C)C(=O)[C@H](CC2CCCCC2)N(C)C(=O)[C@@H]2CCN2C(=O)[C@H](C)N(C)C1=O` [Compound 2104] ([NMeL]I[NMeA][Aze][NMeCha][Sar][hPhe(3-Cl-4-CF3)][NMeE](Pyrrolidide)[Ac5c][NMeGly(cPent)][NMeD]-Morpholide; lactam N-11) yielded an IC50 of 10 nM.
`CC[C@H](C)[C@@H]1NC(=O)[C@H](CC(C)C)N(C)C(=O)C[C@@H](C)NC(=O)[C@H](C(C)C)N(C)C(=O)C2(CCCC2)NC(=O)[C@@H]2CCCN2C(=O)[C@H](CCc2ccc(C(F)(F)F)c(Cl)c2)NC(=O)CN(C)C(=O)[C@H](CC2CCCCC2)N(C)C(=O)[C@@H]2CCN2C(=O)[C@H](COCC(C)(C)O)N(C)C1=O` [Compound 1122] (cyclo([Ac5c][NMeV][d(β3hA)][NMeL]I[NMeS](CH2CMe2OH)[Aze][NMeCha][Sar][hPhe(3-Cl-4-CF3)]P)) was tested, and the IC50 was 67 nM.
Compound `CCO[C@@H]1C[C@H]2C(=O)NC3(CCCC3)C(=O)N(C)[C@@H](C3CCCCC3)C(=O)N(C)[C@H](C)CC(=O)N(C)[C@@H](CC(C)C)C(=O)N[C@@H]([C@@H](C)CC)C(=O)N(C)[C@@H](C)C(=O)N3CC[C@H]3C(=O)N(C)[C@@H](Cc3ccc(C(F)(F)F)cc3)C(=O)N(C)CC(=O)N[C@@H](CCc3ccc(C(F)(F)F)c(Cl)c3)C(=O)N2C1` [Compound 652] (cyclo([Ac5c][NMeChg][NMedβ3hAla][NMeL]I[NMeA][Aze][NMePhe(4-CF3)][Sar][hPhe(3-Cl-4-CF3)][Hyp](Et))) has an IC50 of 4.3 nM.
For `CC[C@H](C)[C@@H]1NC(=O)[C@H](CC(C)C)N(C)C(=O)C[C@@H](C)N(C)C(=O)[C@H](C2CCCCC2)N(C)C(=O)C2(CCCC2)NC(=O)[C@@H]2CCCN2C(=O)[C@H](CCc2ccc(C(F)(F)F)c(Cl)c2)NC(=O)CN(C)C(=O)[C@H](Cc2ccc(C(F)(F)F)cc2)N(C)C(=O)[C@@H]2CCN2C(=O)[C@H](C)N(C)C1=O` [Compound 348] (cyclo([Ac5c][NMeChg][NMedβ3hAla][NMeL]I[NMeA][Aze][NMePhe(4-CF3)][Sar][hPhe(3-Cl-4-CF3)]P)), the IC50 was 6 nM.
In the case of `CC[C@H](C)[C@@H]1NC(=O)[C@H](C(C)C)N(C)C(=O)C[C@@H](C(=O)N2CCCCC2)NC(=O)[C@H](CC(C)C)N(C)C(=O)C2(CCCC2)NC(=O)[C@H](CC(C)C)N(C)C(=O)[C@H](CCc2ccc(C(F)(F)F)cc2)NC(=O)CN(C)C(=O)[C@H](Cc2ccc(Cl)cc2)N(C)C(=O)CN(C)C(=O)CN(C)C1=O` [Compound 610] ([NMeV]I[Sar][Sar][NMePhe(4-Cl)][Sar][hPhe(4-CF3)][NMeL][Ac5c][NMeL]D-Piperidide; lactam N-11), the IC50 is reported as 150 nM.
Work on `CC[C@H](C)[C@@H]1NC(=O)[C@H](C2CCC2)N(C)C(=O)C[C@@H](C(=O)N2CCCCC2)N(C)C(=O)[C@H]([C@@H](C)CC)N(C)C(=O)C2(CCCC2)NC(=O)[C@@H]2CCCN2C(=O)[C@H](CCc2ccc(C(F)(F)F)c(Cl)c2)NC(=O)CN(C)C(=O)[C@H](CC2CCCCC2)N(C)C(=O)[C@@H]2CCN2C(=O)[C@H](C)N(C)C1=O` [Compound 959] ([NMeGly(cBu)]I[NMeA][Aze][NMeCha][Sar][hPhe(3-Cl-4-CF3)]P[Ac5c][NMeI][NMeD]-Piperidide; lactam N-11) yielded an IC50 of 1.4 nM.
`CCO[C@@H]1C[C@H]2C(=O)N(C)[C@@H](COCCC(C)C)C(=O)N(C)[C@@H](CC(C)C)C(=O)N[C@H](C(=O)N3CCCC3)CC(=O)N(C)[C@@H](C)C(=O)N[C@@H]([C@@H](C)CC)C(=O)N(C)CC(=O)N(C)CC(=O)N(C)[C@@H](Cc3ccc(Cl)cc3)C(=O)N(C)CC(=O)N[C@@H](Cc3cccc(Cl)c3)C(=O)N2C1` [Compound 925] ([NMeA]I[Sar][Sar][NMePhe(4-Cl)][Sar][Phe(3-Cl)][Hyp](Et)[NMeS](Isopentyl)[NMeL]D-Pyrrolidide; lactam N-11) gave an IC50 of 360 nM.
With `CCC[C@H]1C(=O)N2CC[C@H]2C(=O)N(C)[C@@H](CC2CCCCC2)C(=O)N(C)CC(=O)N[C@@H](CCc2ccc(C(F)(F)F)c(Cl)c2)C(=O)N2CCC[C@H]2C(=O)NC2(CCCC2)C(=O)N(C)[C@@H](C(C)C)C(=O)N(C)[C@H](C(=O)N2CCCCC2)CC(=O)N(C)[C@@H](CC(C)C)C(=O)N[C@@H]([C@@H](C)CC)C(=O)N1C` [Compound 1601] ([NMeL]I[NMeNva][Aze][NMeCha][Sar][hPhe(3-Cl-4-CF3)]P[Ac5c][NMeV][NMeD]-Piperidide; lactam N-11) the IC50 was 22 nM.
For `CC(C)C[C@H]1C(=O)N[C@@H](CC2CC2)C(=O)N(C)[C@@H](C)C(=O)N2CC[C@H]2C(=O)N(C)[C@@H](CC2CCCCC2)C(=O)N(C)CC(=O)N[C@@H](CCc2ccc(C(F)(F)F)c(Cl)c2)C(=O)N2CCC[C@H]2C(=O)NC2(CCCC2)C(=O)N(C)[C@@H](C(C)C)C(=O)N[C@H](C)CC(=O)N1C` [Compound 474] (cyclo([Ac5c][NMeV][d(β3hA)][NMeL][Ala(cPr)][NMeA][Aze][NMeCha][Sar][hPhe(3-Cl-4-CF3)]P)), the IC50 was 280 nM.
Compound `CC[C@H](C)[C@@H]1NC(=O)[C@H](CC(C)C)N(C)C(=O)C[C@@H](C)N(C)C(=O)[C@H]([C@@H](C)CC)N(C)C(=O)C2(CCC2)NC(=O)[C@@H]2CC(F)(F)CN2C(=O)[C@H](CCc2ccc(C(F)(F)F)c(Cl)c2)NC(=O)CN(C)C(=O)[C@H](Cc2ccc(C(F)(F)F)cc2)N(C)C(=O)[C@@H]2CCN2C(=O)[C@H](C)N(C)C1=O` [Compound 462] (cyclo([Ac4c][NMeI][NMedβ3hAla][NMeL]I[NMeA][Aze][NMePhe(4-CF3)][Sar][hPhe(3-Cl-4-CF3)][Pro(4,4-F2)])) has an IC50 of 12 nM.
